Source: US10124004B2, “Pyrido[3,4-d]pyrimidine derivative and pharmaceutically acceptable salt thereof” (Teijin Pharma Limited, priority 2015, dated 2018)
Read-outs that look alike come from different tables or passages of the source.

What was measured:
[1] = target: T1, CDK2/cyclin A2 (Homo sapiens, UniProt P24941); assay: Human CDK2/cyclin A2 inhibitory activity (QS S Assist CDK2/Cyclin A2_FP Kit, IMAP fluorescence polarization); assay type: biochemical
T1 construct: purchased Carna Biosciences, Inc. QS S Assist CDK2/Cyclin A2_FP Kit
Method in brief: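 Kinase activity read as fluorescence polarization (485/535 nm) after phosphorylated fluorescent substrate binds IMAP reagent (30 min, RT, dark). Enzyme (2.5 ng/well) reacted 60 min at RT with ATP/substrate/metal in HEPES pH 7.4 buffer with Tween 20 and DTT; no-enzyme wells define 0% activity; IC50 by curve fit.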

[2] = target: T2, CDK4/cyclin D3 (Homo sapiens, UniProt P11802); assay: Human CDK4/cyclin D3 inhibitory activity (QS S Assist CDK4/Cyclin D3_FP Kit, IMAP fluorescence polarization); assay type: biochemical
T2 construct: purchased Carna Biosciences, Inc. QS S Assist CDK4/Cyclin D3_FP Kit
Method in brief: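 IMAP fluorescence-polarization kinase assay with kit ATP/substrate/metal mix and 12.5 to 25 ng/well enzyme in 20 mM HEPES pH 7.4, 0.01% Tween20, 2 mM DTT. Reaction ran 45 min at room temperature, then binding reagent was added for 30 min in the dark. IC50 was taken from dose-response fits of percent inhibition.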

[3] = Human CDK2/cyclin A2 inhibitory activity, read-out: CDK2 Activity symbol
[4] = Human CDK4/cyclin D3 inhibitory activity, read-out: CDK4 Activity symbol
[5] = 50% inhibitory concentration against CDK2/cyclin A2, given as class symbol
[6] = 50% inhibitory concentration against CDK4/cyclin D3, given as class symbol

T2 sequence (P11802 whole entry): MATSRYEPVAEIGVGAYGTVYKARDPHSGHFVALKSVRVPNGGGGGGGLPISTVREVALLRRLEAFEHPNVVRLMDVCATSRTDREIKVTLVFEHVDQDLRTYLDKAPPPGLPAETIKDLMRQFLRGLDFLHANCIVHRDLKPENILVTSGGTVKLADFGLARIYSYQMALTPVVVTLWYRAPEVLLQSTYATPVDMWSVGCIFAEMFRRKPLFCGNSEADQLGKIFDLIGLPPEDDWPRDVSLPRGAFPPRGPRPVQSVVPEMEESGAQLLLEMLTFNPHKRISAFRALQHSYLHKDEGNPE
T2 sequence (P30281 whole entry partner): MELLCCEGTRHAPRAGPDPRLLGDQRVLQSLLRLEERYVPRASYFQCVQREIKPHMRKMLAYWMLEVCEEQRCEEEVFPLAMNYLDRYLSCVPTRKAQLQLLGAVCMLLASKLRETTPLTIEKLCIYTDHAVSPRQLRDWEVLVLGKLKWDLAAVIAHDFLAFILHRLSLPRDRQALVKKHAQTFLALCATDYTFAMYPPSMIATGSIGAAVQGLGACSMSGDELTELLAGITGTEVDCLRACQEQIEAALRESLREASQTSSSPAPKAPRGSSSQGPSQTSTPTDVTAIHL

SMILES	IC50 [1, 3] [µM]	IC50 [2, 4] [µM]	IC50 [1, 5] [µM]	IC50 [2, 6] [µM]
C[C@@H](O)c1cc2cnc(Nc3ccc(N4CCC(O)CC4)nn3)nc2c(N[C@H]2CCCOC2)n1 [Compound 595]	≥ 0.1	< 0.01	–	–
COCC(C)(C)Nc1nc(C(C)O)cc2cnc(Nc3ccc(N4CCNCC4)cn3)nc12 (centres unmarked) [Compound 29]	≥ 0.1	< 0.01	–	–
CC(C)Nc1nc([C@@H](C)O)cc2cnc(Nc3ccc(N4CCN(C(C)C)CC4=O)cn3)nc12 [Compound 584]	≥ 0.1	< 0.01	–	–
CC(C)Nc1nc([C@@H](C)O)cc2cnc(Nc3ccc(N4CCN(CC(C)(C)O)CC4=O)cn3)nc12 [Compound 627]	–	–	≥ 0.1	< 0.01
CCCCNc1nc([C@@H](C)OC)cc2cnc(Nc3ccc(CN4CCNCC4)cn3)nc12 [Compound 854]	–	–	≥ 0.1	< 0.01
CCCNc1nc([C@@H](C)OC)cc2cnc(Nc3ccc4c(n3)CCN(CCN(C)C)C4)nc12 [Compound 1130]	–	–	≥ 0.1	0.01 to 0.1
CC(O)c1cc2cnc(Nc3ccc(N4CCNCC4)cn3)nc2c(NC(C)(C)C)n1 (centres unmarked) [Compound 24]	≥ 0.1	< 0.01	–	–
CC(C)Nc1nc(C(C)O)cc2cnc(Nc3ccc(N4CCOCC4)cn3)nc12 (centres unmarked) [Compound 72]	≥ 0.1	< 0.01	–	–
CC(C)Nc1nc([C@@H](C)O)cc2cnc(Nc3ccc(CC4CCNCC4)cn3)nc12 [Compound 950]	–	–	≥ 0.1	< 0.01
CC(C)Nc1nc([C@@H](C)O)cc2cnc(Nc3ccc(C4CNCCO4)nn3)nc12 (some centres unmarked) [Compound 706]	–	–	≥ 0.1	< 0.01
COC[C@H](C)Nc1nc([C@@H](C)O)cc2cnc(Nc3ccc(OCCN(C)C)cn3)nc12 [Compound 754]	–	–	≥ 0.1	0.01 to 0.1
CC(C)Nc1nc([C@@H](C)O)cc2cnc(Nc3ccc(N4CCC(O)CC4=O)cn3)nc12 (some centres unmarked) [Compound 926]	–	–	≥ 0.1	< 0.01
CNCCOc1ccc(Nc2ncc3cc([C@@H](C)O)nc(N[C@H]4CCCOC4)c3n2)nc1 [Compound 635]	–	–	≥ 0.1	< 0.01
C[C@@H](O)c1cc2cnc(Nc3ccc(CN4CCNCC4)cn3)nc2c(N[C@@H]2CCOC2)n1 [Compound 259]	≥ 0.1	< 0.01	–	–
CC(CN(C)C)Oc1ccc(Nc2ncc3cc([C@@H](C)O)nc(N[C@H]4CCCOC4)c3n2)nc1 (some centres unmarked) [Compound 781]	–	–	≥ 0.1	< 0.01
CC(C)Nc1nc(C2(C)COC2)cc2cnc(Nc3ccc(N4CCNCC4)cn3)nc12 [Compound 1006]	–	–	≥ 0.1	< 0.01
CC(C)Nc1nc(C(F)F)cc2cnc(Nc3ccc(CN(C[C@@H]4CCCO4)S(C)(=O)=O)cn3)nc12 [Compound 149]	≥ 0.1	0.01 to 0.1	–	–
Cc1c([C@H](C)O)nc(NC(C)C)c2nc(Nc3ccc(N4CCNCC4)cn3)ncc12 [Compound 65]	≥ 0.1	0.01 to 0.1	–	–
CNC(=O)CN1CCN(Cc2ccc(Nc3ncc4cc([C@@H](C)OC)nc(NC(C)C)c4n3)nc2)CC1 [Compound 971]	–	–	≥ 0.1	< 0.01
CC(C)Nc1nc(C(F)F)cc2cnc(Nc3ccc(N4CCNCC4)c(F)n3)nc12 [Compound 67]	0.01 to 0.1	< 0.01	–	–

SMILES	IC50 [1, 3] [µM]	IC50 [2, 4] [µM]	IC50 [1, 5] [µM]	IC50 [2, 6] [µM]
CC(C)Nc1nc([C@@H](C)O)cc2cnc(Nc3ccc(N4C(=O)CN5CCC4CC5)cn3)nc12 [Compound 623]	0.01 to 0.1	< 0.01	–	–
C[C@@H](O)c1cc2cnc(Nc3ccc(N4CCNCC4=O)cn3)nc2c(NC2CCOCC2)n1 [Compound 350]	≥ 0.1	< 0.01	–	–
CNC(=O)C1CCN(Cc2ccc(Nc3ncc4cc([C@@H](C)O)nc(NC(C)(C)COC)c4n3)nc2)CC1 [Compound 297]	≥ 0.1	< 0.01	–	–
CC(C)Nc1nc([C@@H](C)O)cc2cnc(Nc3ccc(N4CCN(C(C)(C)C)CC4)nn3)nc12 [Compound 604]	≥ 0.1	< 0.01	–	–
CC(C)Nc1nc(C(F)F)cc2cnc(Nc3ccc(OCCO)cn3)nc12 [Compound 155]	0.01 to 0.1	< 0.01	–	–
CO[C@H](C)c1cc2cnc(Nc3ccc(N4CCNCC4)nn3)nc2c(NC2CCC(C)(C)CC2)n1 [Compound 726]	–	–	≥ 0.1	< 0.01
CCCNc1nc([C@@H](C)O)cc2cnc(Nc3cc(C)c(CN4CCN(CCO)CC4)cn3)nc12 [Compound 1054]	–	–	≥ 0.1	0.01 to 0.1
COCC(C)(C)Nc1nc([C@@H](C)O)cc2cnc(Nc3ccc(N4CCOCC4)cn3)nc12 [Compound 204]	≥ 0.1	< 0.01	–	–
C[C@@H](O)c1nc(N[C@H]2CCCOC2)c2nc(Nc3ccc(N4CCNCC4=O)cn3)ncc2c1Cl [Compound 751]	–	–	≥ 0.1	< 0.01
C[C@@H](O)c1nc(N[C@H]2CC[C@H](O)CC2)c2nc(Nc3ccc(CN4CCNCC4)cn3)ncc2c1Cl [Compound 370]	≥ 0.1	< 0.01	–	–
CCO[C@H](C)c1cc2cnc(Nc3ccc(N4CCNCC4)nn3)nc2c(NC(C)C)n1 [Compound 310]	≥ 0.1	< 0.01	–	–
CC(C)Nc1nc([C@@H](C)O)cc2cnc(Nc3ccc(N4CCN(C(C)C#N)CC4)nn3)nc12 (some centres unmarked) [Compound 902]	–	–	≥ 0.1	< 0.01
CO[C@@H](C)c1cc2cnc(Nc3ccc(N4CCNCC4)cn3)nc2c(NC(C)C)n1 [Compound 38]	≥ 0.1	< 0.01	–	–
CC(C)Nc1nc([C@@H](C)O)cc2cnc(Nc3ccc(O[C@H]4CCNC4)cn3)nc12 [Compound 566]	≥ 0.1	< 0.01	–	–
CC(C)Nc1nc(C(F)F)cc2cnc(Nc3ccc(CN4CCNC(=O)C4)cn3)nc12 [Compound 131]	0.01 to 0.1	< 0.01	–	–
CO[C@H](C)c1cc2cnc(Nc3ccc(N4CCNCC4)nn3)nc2c(NCC2CCOC2)n1 (some centres unmarked) [Compound 321]	≥ 0.1	< 0.01	–	–
CC(C)Nc1nc([C@@H](C)O)cc2cnc(Nc3ccc(CN4CCN(C(=O)C5CCCO5)CC4)cn3)nc12 (some centres unmarked) [Compound 1192]	–	–	≥ 0.1	< 0.01
CC(C)Nc1nc([C@@H](C)O)cc2cnc(Nc3ccc4c(n3)CCN(CCN3CCCC3=O)C4)nc12 [Compound 955]	–	–	≥ 0.1	< 0.01
CCCCNc1nc([C@@H](C)OC)cc2cnc(Nc3ccc(N4CCNCC4)nn3)nc12 [Compound 855]	–	–	≥ 0.1	< 0.01
CO[C@H](C)c1cc2cnc(Nc3ccc(CN4CCN(CC#N)CC4)cn3)nc2c(NC(C)C)n1 [Compound 969]	–	–	≥ 0.1	0.01 to 0.1

SMILES	IC50 [1, 3] [µM]	IC50 [2, 4] [µM]	IC50 [1, 5] [µM]	IC50 [2, 6] [µM]
CC(C)Nc1nc([C@@H](C)O)cc2cnc(Nc3ccc(CC(=O)N4CCN(C(C)C)CC4)cn3)nc12 [Compound 615]	≥ 0.1	< 0.01	–	–
CC(O)c1cc2cnc(Nc3ccc(N4CCNCC4)cn3)nc2c(NC(C)C(F)(F)F)n1 (centres unmarked) [Compound 54]	≥ 0.1	< 0.01	–	–
CC(C)Nc1nc(C2CCOC2)cc2cnc(Nc3ccc4c(n3)CCN(CC(=O)O)C4)nc12 (centres unmarked) [Compound 1232]	–	–	≥ 0.1	< 0.01
CC(C)CNc1nc([C@@H](C)O)cc2cnc(Nc3ccc(N4CCNCC4)nn3)nc12 [Compound 827]	–	–	≥ 0.1	< 0.01
CC(=O)c1cc2cnc(Nc3ccc(N4CCNCC4)cn3)nc2c(NCC2CC2)n1 [Compound 1052]	–	–	≥ 0.1	0.01 to 0.1
C[C@@H](O)c1cc2cnc(Nc3ccc(CN4CCC(CO)CC4)cn3)nc2c(N[C@H]2CC[C@H](O)CC2)n1 [Compound 1151]	–	–	≥ 0.1	< 0.01
CO[C@H](C)c1cc2cnc(Nc3ccc(CN4CCN(C(=O)CO)CC4)cn3)nc2c(NC(C)C)n1 [Compound 988]	–	–	≥ 0.1	< 0.01
C[C@@H](O)c1cc2cnc(Nc3ccc(OCC4CCN4)cn3)nc2c(N[C@H]2CCCOC2)n1 (some centres unmarked) [Compound 802]	–	–	≥ 0.1	< 0.01
CC(C)Nc1nc(C(F)F)cc2cnc(Nc3ccc(CN4CCN(CC(F)(F)F)CC4)cn3)nc12 [Compound 116]	≥ 0.1	0.01 to 0.1	–	–
CCCNc1nc([C@@H](C)OC)cc2cnc(Nc3ccc(CN4CCN(CCO)CC4)cn3)nc12 [Compound 852]	–	–	≥ 0.1	< 0.01
OCCN1CCc2nc(Nc3ncc4cc(C5CCOC5)nc(N[C@H]5CC[C@H](O)CC5)c4n3)ccc2C1 (some centres unmarked) [Compound 1154]	–	–	≥ 0.1	< 0.01
CC(C)CN1CCN(c2ccc(Nc3ncc4cc([C@@H](C)O)nc(NC(C)C)c4n3)nn2)CC1 [Compound 586]	≥ 0.1	< 0.01	–	–
CCCNc1nc([C@@H](C)O)cc2cnc(Nc3ccc(CN4CCN(C)CC4)cn3)nc12 [Compound 1104]	–	–	≥ 0.1	< 0.01
CO[C@H](C)c1cc2cnc(Nc3ccc4c(n3)CCN(CCN(C)C)C4)nc2c(N[C@H]2CC[C@H](O)CC2)n1 [Compound 1180]	–	–	≥ 0.1	< 0.01
CNCC(C)(C)c1ccc(Nc2ncc3cc([C@@H](C)O)nc(NC(C)C)c3n2)nc1 [Compound 263]	≥ 0.1	< 0.01	–	–
CCCNc1nc(C2CCOC2)cc2cnc(Nc3ccc(N4CCNCC4)cn3)nc12 (centres unmarked) [Compound 1004]	–	–	≥ 0.1	< 0.01
CC(O)c1cc2cnc(Nc3ccc(N4CCNCC4)cn3)nc2c(NC2CCCC2)n1 (centres unmarked) [Compound 8]	≥ 0.1	< 0.01	–	–
C[C@@H](O)c1cc2cnc(Nc3ccc(CC4CCN(CCO)CC4)cn3)nc2c(NCC2CCOCC2)n1 [Compound 953]	–	–	≥ 0.1	< 0.01
